Results as given in PMC10648877, “Novel Substituted Azoloazines with Anticoagulant Activity” (International Journal of Molecular Sciences, 2023).
pEC50: −log10 of the molar value. Where “and” joins values, the source holds several entries; their conditions need not be identical. Equal values may be shown once. One block for each molecule: values may come before it.

Key:
[1] = system: platelet-poor plasma (PPP); test: Activated partial thromboplastin time (APTT), rabbit blood coagulogram in vitro; type: biochemical; conditions: 100 μM; for APTT: M ± m, n = 6;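 for all read-outs here: clotting time read chronometrically on a hemocoagulometer with commercial reagent kits, one of several coagulogram parameters alongside thrombin and prothrombin time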
Experimental: Test compounds and the reference drug were evaluated at a concentration of 100 μM. Effect on rabbit blood coagulograms in vitro was determined chronometrically with a SOLAR hemocoagulometer (Minsk, Belarus) using commercial kits (Technology-Standard, Barnaul, Russia) as per the manufacturer’s instructions. The following parameters were determined: activated partial thromboplastin time, thrombin time, and prothrombin time.

LPS-treated PPP [2] = test: APTT, rabbit blood treated with LPS in vitro (hypercytokinemia); type: biochemical; conditions: 100 μM; for APTT: rabbit blood treated with LPS in vitro
Experimental: (§1) Hypercytokinemia conditions were modeled by incubation of whole blood with S. typhimurium LPS (Sigma Aldrich, St. Louis, MO, USA) at a final concentration of 20 ng/mL and subsequent preparation of PPP.

LPS-treated PPP [3] = test: Thrombin time, rabbit blood treated with LPS in vitro (hypercytokinemia); type: biochemical; conditions: for Δ % of Thrombin Time Prolongation Relative To Control + LPS: with LPS; for prolongation of thrombin time relative to LPS-treated blood control: LPS-treated rabbit blood in vitro
Experimental: as §1
(§2) The calculation of EC50 (effective concentration that prolongs the time of clot formation by 50%) was performed using linear regression analysis.

LPS-treated PPP [4] = test: Prothrombin time, rabbit blood treated with LPS in vitro (hypercytokinemia); type: biochemical; conditions: 100 μM
Experimental: as §1

[5] = system: platelet-poor plasma (PPP); test: Ecarin clotting time in vitro; type: biochemical; conditions: for pEC50: concentration range 100 to 1 μM
Experimental: The ecarin clotting time was designed for the determination of antithrombin anticoagulant activity in platelet-poor plasma. Venous blood was collected into a 15 mL Falcon type plastic tube with 3.8% sodium citrate solution (0.5 mL of sodium citrate per 5 mL of blood), centrifuged on a CM-6M centrifuge (Elmi, Riga, Latvia) at room temperature from 18 to 25 °C for 15 min at 3000 rpm (1200× g). The obtained plasma was withdrawn using an automatic pipette and transferred to a separate clean, dry plastic tube. After that, the obtained plasma was recentrifuged under the same conditions and the upper third of the plasma was taken for analysis.
The ecarin stock solution (STA-ECT, Stago, Düsseldorf, Germany) was prepared according to the manufacturer’s instructions and diluted to 4 units/mL with HEPES-buffered saline (0.2 M) containing 0.025 M calcium chloride.
The tested samples were investigated in the concentration range from 100 to 1 μM for IC50 determination.
Prepared reagents and platelet-poor plasma were heated to 37 °C. The assay was performed on a Solar CGL2120 coagulometer (Belarus), adding 50 µL of the reagent ecarin to 100 µL of PPP and recording the clotting time.
as §2

coagulograms of rats [6] = test: APTT after single intragastric administration, rats without hypercytokinemia; type: in vivo, rat; conditions: dabigatran etexilate 12 mg/kg; for prolongation of APTT compared to the control: intact rats, 2 h after intragastric administration, 5d 5.5 mg/kg; for APTT: rats without hypercytokinemia, single intragastric dose, 2 h, 5d 5.5 mg/kg (equimolar)
Experimental: (§3) Distilled water was used as a solvent. In all experiments, control animals were injected with an equivalent volume of a vehicle. The reference drug dabigatran etexilate was administered to rats 2 h before the study at a 12 mg/kg dose (equivalent to the human dose, taking into account the interspecies conversion factor). Compound 5d was administered to rats 2 h before the study in a 5.5 mg/kg dose, equimolar to the dose of dabigatran etexilate.
(§4) To stabilize the blood, a 3.8% aqueous solution of sodium citrate (pH 6.0) was used in a ratio of 9:1. Coagulogram parameters of platelet-poor plasma were measured with a SOLAR coagulometer according to the methods described above.

coagulograms of rats [7] = test: Thrombin time after single intragastric administration, rats without hypercytokinemia; type: in vivo, rat; conditions: dabigatran etexilate 12 mg/kg; for increase of thrombin time relative to intact control: intact rats, 2 h after intragastric administration, 5d 5.5 mg/kg; for TT: rats without hypercytokinemia, single intragastric dose, 2 h, 5d 5.5 mg/kg (equimolar)
Experimental: as §3, §4

coagulograms of rats [8] = test: Prothrombin time after single intragastric administration, rats without hypercytokinemia; type: in vivo, rat; conditions: for PT: single intragastric dose, 2 h, dabigatran etexilate 12 mg/kg, 5d 5.5 mg/kg (equimolar)
Experimental: as §3, with “factor).” for “factor). Compound 5d was administered to rats 2 h before the study in a 5.5 mg/kg dose, equimolar to the dose of dabigatran etexilate.”
(§5) Coagulogram parameters of platelet-poor plasma were measured with a SOLAR coagulometer according to the methods described above.

coagulograms of rats [9] = test: APTT after single intragastric administration, rats with hypercytokinemia (LPS); type: in vivo, rat; conditions: dabigatran etexilate 12 mg/kg; for prolongation of APTT in relation to the LPS control group: LPS-injected rats, 5d 5.5 mg/kg intragastric; for APTT: rats with hypercytokinemia (LPS 2 mg/kg i.v.), single intragastric dose, 2 h, 5d 5.5 mg/kg
Experimental: as §3, §4
(§6) Hypercytokinemia conditions were modeled by an intravenous injection of S. typhimurium LPS (Sigma Aldrich, St. Louis, MO, USA) at a final dose of 2 mg/kg into the tail vein of the rats 2 h before the administration of the substances. The evaluation of anticoagulant activity was conducted according to the methods described above.

coagulograms of rats [10] = test: Thrombin time after single intragastric administration, rats with hypercytokinemia (LPS); type: in vivo, rat; conditions: for increase of thrombin time in relation to the LPS control group: LPS-injected rats, 5d 5.5 mg/kg intragastric; for antithrombin effect under systemic inflammation reaction versus its absence: rats, single intragastric administration
Experimental: as §3, §4, §6

coagulograms of rats [11] = test: Prothrombin time after single intragastric administration, rats with hypercytokinemia (LPS); type: in vivo, rat; conditions: for PT: rats with hypercytokinemia (LPS 2 mg/kg i.v.), single intragastric dose, 2 h, dabigatran etexilate 12 mg/kg, 5d 5.5 mg/kg; for effect on prothrombin time: rats with systemic inflammatory reaction (LPS)
Experimental: as §3, with “factor).” for “factor). Compound 5d was administered to rats 2 h before the study in a 5.5 mg/kg dose, equimolar to the dose of dabigatran etexilate.”
as §5, §6

[12] = system: platelet-poor plasma (PPP); test: Thrombin time (TT), rabbit blood coagulogram in vitro; type: biochemical; conditions: for Δ% of Thrombin Time Prolongation Relative to Control / EC50: without LPS; for TT: M ± m, n = 6; for EC50: concentration that prolongs clot formation time by 50%, read-out: EC50, μM (thrombin time prolongation)
[13] = system: platelet-poor plasma (PPP); test: Prothrombin time (PT), rabbit blood coagulogram in vitro; conditions: 100 μM; for PT: M ± m, n = 6;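 for all read-outs here: clotting time read chronometrically on a hemocoagulometer using commercial reagent kits, with dabigatran etexilate at the same concentration as reference anticoagulant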
Experimental: The study was performed on platelet-poor plasma (PPP) stabilized with a 3.8% sodium citrate solution in a ratio of 9:1 according to the method described in [34]. Dabigatran etexilate (Boehringer Ingelheim Pharma GmbH and Co., Ingelheim am Rhein, Germany) was used as the reference drug. Test compounds and the reference drug were evaluated at a concentration of 100 μM. Effect on rabbit blood coagulograms in vitro was determined chronometrically with a SOLAR hemocoagulometer (Minsk, Belarus) using commercial kits (Technology-Standard, Barnaul, Russia) as per the manufacturer’s instructions. The following parameters were determined: activated partial thromboplastin time, thrombin time, and prothrombin time.

[14] = rats with hypercytokinemia (LPS 2 mg/kg i.v.), single intragastric dose, 2 h, dabigatran etexilate 12 mg/kg, 5d 5.5 mg/kg

Structure (SMILES): CCCCCCOC(=O)N=C(N)c1ccc(NCc2nc3cc(C(=O)N(CCC(=O)OCC)c4ccccn4)ccc3n2C)cc1 [Dabigatran etexilate, reference compound]
increase of APTT relative to the control [1]: 1.6 times
APTT [1]: 75.26 ± 2.61 s
prolongation of APTT relative to LPS-treated blood (LPS-treated PPP [2]; LPS-treated rabbit blood in vitro): 2.3 times
APTT (LPS-treated PPP [2]): 135.13 ± 15.17 s
Δ % of Thrombin Time Prolongation Relative To Control + LPS (LPS-treated PPP [3]; 1 μM): 51.7% and 51.7 ± 0.5%
Δ % of Thrombin Time Prolongation Relative To Control + LPS (LPS-treated PPP [3]; 5 μM): 208.6%
Δ % of Thrombin Time Prolongation Relative To Control + LPS (LPS-treated PPP [3]; 10 μM): 292.0%
prolongation of thrombin time relative to LPS-treated blood control (LPS-treated PPP [3]; 100 μM): 14.0 times
TT (LPS-treated PPP [3]; rabbit blood treated with LPS in vitro, 100 μM): 125.45 ± 1.54 s
PT (LPS-treated PPP [4]): 15.73 ± 0.20 s
ecarin clotting time ([5]; 1 μM): 41.6 s
ecarin clotting time ([5]; 10 μM): 54.1 s
lengthening of ecarin clotting time compared to control ([5]; 100 μM): 2.3 fold
pEC50 [5]: 4.98
prolongation of APTT compared to the control (coagulograms of rats [6]): 3.6 times
APTT (coagulograms of rats [6]): 137.5 ± 2.2 s
increase of thrombin time relative to intact control (coagulograms of rats [7]): 10.5 times
TT (coagulograms of rats [7]): 603.9 ± 14.2 s
effect on prothrombin time (coagulograms of rats [8]): did not change
PT (coagulograms of rats [8]): 31.2 ± 1.3 s
prolongation of APTT in relation to the LPS control group (coagulograms of rats [9]): 2.2 times
APTT (coagulograms of rats [9]): 41.0 ± 2.0 s
increase of thrombin time in relation to the LPS control group (coagulograms of rats [10]; dabigatran etexilate 12 mg/kg): 12.8 times
TT (coagulograms of rats [10]; [14]): 566.1 ± 11.5 s
antithrombin effect under systemic inflammation reaction versus its absence (coagulograms of rats [10]): did not change
PT (coagulograms of rats [11]): 28.1 ± 1.0 s
effect on prothrombin time (coagulograms of rats [11]): neither the test compound nor dabigatran etexilate had an effect
Δ% of Thrombin Time Prolongation Relative to Control ([12]; 0.1 μM): 1.4 ± 0.4 %
Δ% of Thrombin Time Prolongation Relative to Control ([12]; 1 μM): 42.3 ± 5.6 %
Δ% of Thrombin Time Prolongation Relative to Control ([12]; 1 μM, listed as dabigatran etexilate): 42.3%
Δ% of Thrombin Time Prolongation Relative to Control ([12]; 5 μM): 176.1 ± 15.3 %
Δ% of Thrombin Time Prolongation Relative to Control ([12]; 5 μM, listed as dabigatran etexilate): 176.1%
thrombin time ([12]; 10 μM, intact PPP): 46.8 s
Δ% of Thrombin Time Prolongation Relative to Control ([12]; 10 μM): 302.0 ± 34.4 %
Δ% of Thrombin Time Prolongation Relative to Control ([12]; 10 μM, listed as dabigatran etexilate): 302.0%
increase of thrombin time relative to the control ([12]; rabbit blood in vitro, 100 μM): 6.0 times
TT ([12]; rabbit blood in vitro, 100 μM): 70.23 ± 3.15 s
EC50 [12]: 1.4 µM
effect on prothrombin time [13]: without changing the prothrombin time
PT [13]: 14.20 ± 0.38 s

pEC50 [5]: 4.75
EC50 [12]: 1.25 µM and 1.3 µM
Structure (SMILES): C1=C(c2cccs2)n2ncnc2NC1c1cccs1 (stereo not drawn) [Compound 5d, 7,5-Di(2-thienyl)-4,5-dihydro-[1,2,4]triazolo[1,5-a]pyrimidine]
increase of APTT relative to the control [1]: 1.3 times
APTT [1]: 61.78 ± 4.58 s
APTT (LPS-treated PPP [2]): 61.78 ± 4.58 s
Δ % of Thrombin Time Prolongation Relative To Control + LPS (LPS-treated PPP [3]; 1 μM): 56.3% and 56.3 ± 1.1 %
Δ % of Thrombin Time Prolongation Relative To Control + LPS (LPS-treated PPP [3]; 5 μM): 234.1% and 234.1 ± 4.2 ^#$ %
Δ % of Thrombin Time Prolongation Relative To Control + LPS (LPS-treated PPP [3]; 10 μM): 354.1% and 354.1 ± 6.5 ^#$ %
prolongation of thrombin time relative to LPS-treated blood control (LPS-treated PPP [3]; 100 μM): 17.0 times
PT (LPS-treated PPP [4]): 14.08 ± 0.4 s
ecarin clotting time ([5]; 1 μM): 40.2 s
ecarin clotting time ([5]; 10 μM): 50.5 s
ecarin clotting time ([5]; 100 μM): 81.3 s
prolongation of APTT compared to the control (coagulograms of rats [6]): 1.5 times
APTT (coagulograms of rats [6]): 59.2 ± 8.3 s
increase of thrombin time relative to intact control (coagulograms of rats [7]): 5.6 times
TT (coagulograms of rats [7]): 325.3 ± 5.1 s
PT (coagulograms of rats [8]): 24.5 ± 1.1 s
prolongation of APTT in relation to the LPS control group (coagulograms of rats [9]): 1.6 times
APTT (coagulograms of rats [9]): 28.7 ± 1.0 s
increase of thrombin time in relation to the LPS control group (coagulograms of rats [10]; dabigatran etexilate 12 mg/kg): 14.5 times
TT, s (coagulograms of rats [10]; [14]): 640.3 ± 7.4 ^#$ s
antithrombin effect under systemic inflammation reaction versus its absence (coagulograms of rats [10]): twice as pronounced
PT (coagulograms of rats [11]): 26.4 ± 1.4 s
effect on prothrombin time (coagulograms of rats [11]): neither the test compound nor dabigatran etexilate had an effect
Δ% of Thrombin Time Prolongation Relative to Control ([12]; 1 μM): 46.5% and 46.5 ± 6.7 %
Δ% of Thrombin Time Prolongation Relative to Control ([12]; 5 μM): 194.1% and 194.1 ± 10.0 %
Δ% of Thrombin Time Prolongation Relative to Control ([12]; 10 μM): 467.1% and 467.1 ± 14.4 %
TT ([12]; rabbit blood in vitro, 100 μM): 154.43 ± 11.14 s
prolongation of thrombin time exceeding dabigatran etexilate ([12]; rabbit blood in vitro, 100 μM, versus reference drug): 2.2 times
effect on prothrombin time [13]: did not affect the prothrombin time
PT [13]: 14.08 ± 0.4 s
